Columns and labels:
Assay type in all cases: cell-based
[1] = molecular target: T1, rat GluN1/GluN2B (Rattus norvegicus, UniProt P35439+Q00960); test: Two-electrode voltage-clamp recording in Xenopus laevis oocytes expressing recombinant rat GluN1/GluN2B; settings: for remaining activity at 30 µM: 30 μM test compound, current ratio, oocytes, read-out: I30 μM/Icontrol (mean ± SEM, %) GluN2B; for IC50: Tables 1 and 2, read-out: IC50 (μM) [95% Confidence Interval] GluN2B
T1 construct: expressed in transfected cells; host or cells: Xenopus laevis oocytes (cRNA injection, GluN1/GluN2 ratio 1:2)
T1 sequence (Q00960 27-1482, other chains not shown): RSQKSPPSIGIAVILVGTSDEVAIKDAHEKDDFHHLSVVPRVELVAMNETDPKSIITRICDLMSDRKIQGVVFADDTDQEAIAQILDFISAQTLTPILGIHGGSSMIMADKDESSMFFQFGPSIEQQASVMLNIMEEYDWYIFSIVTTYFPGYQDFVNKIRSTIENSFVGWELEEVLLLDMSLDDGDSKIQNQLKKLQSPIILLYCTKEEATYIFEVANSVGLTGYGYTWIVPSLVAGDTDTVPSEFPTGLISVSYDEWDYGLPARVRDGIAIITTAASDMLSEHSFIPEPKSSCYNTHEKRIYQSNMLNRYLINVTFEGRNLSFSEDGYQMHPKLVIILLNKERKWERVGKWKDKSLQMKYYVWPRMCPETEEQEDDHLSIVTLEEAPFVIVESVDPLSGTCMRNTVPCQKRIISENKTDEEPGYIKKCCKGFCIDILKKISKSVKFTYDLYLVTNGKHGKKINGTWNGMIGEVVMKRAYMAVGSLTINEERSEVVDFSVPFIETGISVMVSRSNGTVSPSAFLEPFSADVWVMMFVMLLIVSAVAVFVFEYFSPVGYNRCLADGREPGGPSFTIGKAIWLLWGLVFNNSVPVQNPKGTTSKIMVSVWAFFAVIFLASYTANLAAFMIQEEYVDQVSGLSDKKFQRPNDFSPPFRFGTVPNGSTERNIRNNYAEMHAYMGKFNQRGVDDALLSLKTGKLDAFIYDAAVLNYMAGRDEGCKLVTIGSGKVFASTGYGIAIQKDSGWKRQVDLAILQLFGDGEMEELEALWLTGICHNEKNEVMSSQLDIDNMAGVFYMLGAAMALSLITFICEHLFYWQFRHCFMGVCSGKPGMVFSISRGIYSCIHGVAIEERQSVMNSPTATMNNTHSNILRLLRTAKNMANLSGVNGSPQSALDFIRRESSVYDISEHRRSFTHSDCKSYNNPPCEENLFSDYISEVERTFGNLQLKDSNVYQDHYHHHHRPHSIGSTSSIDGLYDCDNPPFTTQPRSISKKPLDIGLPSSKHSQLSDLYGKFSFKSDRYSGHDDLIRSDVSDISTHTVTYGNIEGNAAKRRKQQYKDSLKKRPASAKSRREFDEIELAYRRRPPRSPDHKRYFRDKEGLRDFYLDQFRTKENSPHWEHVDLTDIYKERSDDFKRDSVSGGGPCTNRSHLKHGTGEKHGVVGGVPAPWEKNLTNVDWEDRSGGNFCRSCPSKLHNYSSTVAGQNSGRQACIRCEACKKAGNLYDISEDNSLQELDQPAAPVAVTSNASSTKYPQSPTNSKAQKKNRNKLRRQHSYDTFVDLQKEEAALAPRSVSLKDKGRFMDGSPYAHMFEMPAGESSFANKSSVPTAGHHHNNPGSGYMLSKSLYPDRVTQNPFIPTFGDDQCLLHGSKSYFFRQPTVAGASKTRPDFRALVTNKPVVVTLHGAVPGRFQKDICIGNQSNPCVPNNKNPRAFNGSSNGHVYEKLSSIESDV
Description: (§1) Two-electrode voltage-clamp recording was performed in Xenopus laevis oocytes injected with mRNA to express recombinant rat GluN1/GluN2A, GluN1/GluN2B, GluN1/GluN2C, and GluN1/GluN2D. cDNAs for rat NMDA subunits GluN1-la (GenBank U08261; hereafter GluN1), GluN2A (GenBank D13211), GluN2B (GenBank U11419), GluN2C (GenBank M91563), and GluN2D (GenBank L31611) were provided by Drs. S. Heinemann from Salk Institute, S. Nakanishi from Kyoto University, and P. Seeburg from the University of Heidelberg. An automatic injector (Nanoject II, Drummond Scientific) was used for cRNA injection using the pipettes filled with mineral oil. The cRNA that transcribed in vitro via the mMessage Machine kit (Ambion) was diluted with nuclease-free water, and then injected at a GluN1/GluN2 ratio of 1:2. The oocytes were stored in Barth's solution that contained 88 mM NaCl, 5.0 mM Tris-HCl, 2.4 mM NaHCO3, 1.0 mM KCl, 0.84 mM MgSO4, 0.41 mM CaCl2), 0.33 mM Ca(NO3)2, 0.1 mg/ml gentamycin sulfate, 1.0 U/ml penicillin, and 1 μg/ml streptomycin at pH 7.4 and temperatures of 15-17° C. for two to five days before the two-electrode voltage-clamp recordings.
(§2) During recording, the oocytes were placed in a perfusion chamber and continually washed with the recording solution containing 90 mM NaCl, 1.0 mM KCl, 0.50 mM BaCl2, 0.005 mM EDTA, and 10 mM HEPES at pH 7.4 and a temperature of 23° C. Glass electrodes with a tip resistance of 0.5 to 2.5 MΩ were obtained from thin-walled glass capillary tubes. Voltage electrodes and current electrodes were filled with 0.3 M and 3.0 M KCl, respectively. The recordings were executed with the oocytes membrane potential holding at −40 mV by an OC-725 amplifier (Warner Instrument Co.). All compounds were dissolved in dimethyl sulfoxide (DMSO) as 20 mM stock solutions and further diluted to reach the desired concentration (0.05-0.5% (vol/vol) DMSO) in recording solution comprised of 30 µM glycine and 100 µM glutamate. In general, each compound was tested in multiple oocytes. To evaluate the inhibitory efficacy of the compounds, concentration-response curves were plotted using the average two-electrode voltage-clamp recording results and fitted by the following equation:
(§3) response=100/{1+[(inhibitor concentration)/IC50]^N} • where IC50 is the concentration of compound that inhibit half maximal of the current response and N is the Hill slope.

[2] = molecular target: T2, rat GluN1/GluN2C (Rattus norvegicus, UniProt P35439+Q00961); test: Two-electrode voltage-clamp recording in Xenopus laevis oocytes expressing recombinant rat GluN1/GluN2C; settings: for remaining activity at 30 µM: 30 μM test compound, current ratio, oocytes, read-out: I30 μM/Icontrol (mean ± SEM, %) GluN2C; for IC50: Tables 1 and 2, read-out: IC50 (μM) [95% Confidence Interval] GluN2C
T2 construct: expressed in transfected cells; host or cells: Xenopus laevis oocytes (cRNA injection, GluN1/GluN2 ratio 1:2)
Description: as §1, §2, §3

[3] = molecular target: T3, rat GluN1/GluN2D (Rattus norvegicus, UniProt Q62645); test: Two-electrode voltage-clamp recording in Xenopus laevis oocytes expressing recombinant rat GluN1/GluN2D; settings: for Subunit Selectivity 2B IC50/2D IC50: ratio of GluN2B IC50 to GluN2D IC50; for Current ratio I/Icontrol (mean ± SEM, %) GluN2D: current ratio reported for 10 μM test compound (footnote c); for Subunit Selectivity 2A IC50/2D IC50: ratio of GluN2A IC50 to GluN2D IC50
T3 construct: expressed in transfected cells; host or cells: Xenopus laevis oocytes (cRNA injection, GluN1/GluN2 ratio 1:2)
T3 sequence (Q62645 28-1323, other chains not shown): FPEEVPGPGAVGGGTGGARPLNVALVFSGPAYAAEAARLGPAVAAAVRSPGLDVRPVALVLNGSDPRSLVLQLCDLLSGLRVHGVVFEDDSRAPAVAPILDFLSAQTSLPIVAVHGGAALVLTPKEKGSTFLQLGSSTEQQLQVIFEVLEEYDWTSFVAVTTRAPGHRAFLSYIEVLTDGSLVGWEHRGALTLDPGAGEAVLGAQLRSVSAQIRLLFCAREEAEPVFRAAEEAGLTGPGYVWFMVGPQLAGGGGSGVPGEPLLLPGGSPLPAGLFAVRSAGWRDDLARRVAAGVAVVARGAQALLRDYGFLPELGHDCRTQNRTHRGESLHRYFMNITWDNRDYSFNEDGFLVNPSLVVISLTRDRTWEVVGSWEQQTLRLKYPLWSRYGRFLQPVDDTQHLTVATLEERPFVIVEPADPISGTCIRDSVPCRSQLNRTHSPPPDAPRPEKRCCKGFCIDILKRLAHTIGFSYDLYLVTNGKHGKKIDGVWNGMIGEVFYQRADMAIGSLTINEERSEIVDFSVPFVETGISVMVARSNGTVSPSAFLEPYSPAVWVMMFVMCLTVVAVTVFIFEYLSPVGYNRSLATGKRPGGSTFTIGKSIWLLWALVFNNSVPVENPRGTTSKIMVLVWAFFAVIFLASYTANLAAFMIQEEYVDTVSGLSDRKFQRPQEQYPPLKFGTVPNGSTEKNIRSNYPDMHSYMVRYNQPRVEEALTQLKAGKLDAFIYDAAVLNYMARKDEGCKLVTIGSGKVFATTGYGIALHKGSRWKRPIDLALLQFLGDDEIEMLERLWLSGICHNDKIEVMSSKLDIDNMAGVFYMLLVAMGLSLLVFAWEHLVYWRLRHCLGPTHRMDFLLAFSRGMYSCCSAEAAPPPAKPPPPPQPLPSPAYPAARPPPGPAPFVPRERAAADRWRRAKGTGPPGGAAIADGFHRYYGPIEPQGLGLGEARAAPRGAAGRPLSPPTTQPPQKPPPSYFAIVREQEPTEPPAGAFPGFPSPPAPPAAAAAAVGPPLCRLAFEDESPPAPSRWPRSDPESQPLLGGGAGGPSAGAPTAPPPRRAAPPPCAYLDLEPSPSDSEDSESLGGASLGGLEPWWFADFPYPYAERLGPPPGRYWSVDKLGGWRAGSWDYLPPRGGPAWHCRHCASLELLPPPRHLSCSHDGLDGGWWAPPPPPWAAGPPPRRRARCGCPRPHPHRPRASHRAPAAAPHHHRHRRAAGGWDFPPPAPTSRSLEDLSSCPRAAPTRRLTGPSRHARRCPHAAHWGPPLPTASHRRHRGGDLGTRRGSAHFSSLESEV
Description: as §1, §2, §3

[4] = molecular target: T4, rat GluN1/GluN2D (Rattus norvegicus, UniProt P35439+Q62645); test: as above; settings: for remaining activity at 30 µM: 30 μM test compound, current ratio, oocytes, read-out: I30 μM/Icontrol (mean ± SEM, %) GluN2D; for IC50: Tables 1 and 2, read-out: IC50 (μM) [95% Confidence Interval] GluN2D
T4 construct: expressed in transfected cells; host or cells: Xenopus laevis oocytes (cRNA injection, GluN1/GluN2 ratio 1:2)
T4 sequence (Q62645 28-1323, other chains not shown): as above
Description: as §1, §2, §3

[5] = molecular target: T5, rat GluN1/GluN2A (Rattus norvegicus, UniProt P35439+Q00959); test: Two-electrode voltage-clamp recording in Xenopus laevis oocytes expressing recombinant rat GluN1/GluN2A; settings: for remaining activity at 30 µM: 30 μM test compound, current ratio, oocytes, read-out: I30 μM/Icontrol (mean ± SEM, %) GluN2A; for IC50: Tables 1 and 2, read-out: IC50 (μM) [95% Confidence Interval] GluN2A
T5 construct: expressed in transfected cells; host or cells: Xenopus laevis oocytes (cRNA injection, GluN1/GluN2 ratio 1:2)
Description: as §1, §2, §3

[6] = molecular target: T6, rat GluN1/GluN2B (Rattus norvegicus, UniProt Q00960); test: Two-electrode voltage-clamp recording in Xenopus laevis oocytes expressing recombinant rat GluN1/GluN2B
T6 construct: expressed in transfected cells; host or cells: Xenopus laevis oocytes (cRNA injection, GluN1/GluN2 ratio 1:2)
T6 sequence (Q00960 27-1482, other chains not shown): as the sequence (Q00960 27-1482, other chains not shown) above
Description: as §1, §2, §3

[7] = molecular target: T7, rat GluN1/GluN2C (Rattus norvegicus, UniProt Q00961); test: Two-electrode voltage-clamp recording in Xenopus laevis oocytes expressing recombinant rat GluN1/GluN2C; settings: current ratio reported for 10 μM test compound (footnote c)
T7 construct: expressed in transfected cells; host or cells: Xenopus laevis oocytes (cRNA injection, GluN1/GluN2 ratio 1:2)
Description: as §1, §2, §3

[8] = molecular target: T8, rat GluN1/GluN2A (Rattus norvegicus, UniProt Q00959); test: Two-electrode voltage-clamp recording in Xenopus laevis oocytes expressing recombinant rat GluN1/GluN2A; settings: current ratio reported for 10 μM test compound (footnote c)
T8 construct: expressed in transfected cells; host or cells: Xenopus laevis oocytes (cRNA injection, GluN1/GluN2 ratio 1:2)
Description: as §1, §2, §3

[9] = current ratio reported for 10 μM test compound (footnote c)

remaining activity at 30 µM [1] [%] | IC50 [1] [µM] | remaining activity at 30 µM [2] [%] | IC50 [2] [µM] | Subunit Selectivity 2B IC50/2D IC50 [3] | remaining activity at 30 µM [4] [%] | IC50 [4] [µM] | remaining activity at 30 µM [5] [%] | Current ratio I/Icontrol (mean ± SEM, %) GluN2B [6, 9] | Current ratio I/Icontrol (mean ± SEM, %) GluN2C [7] | Current ratio I/Icontrol (mean ± SEM, %) GluN2D [3] | Current ratio I/Icontrol (mean ± SEM, %) GluN2A [8] | Subunit Selectivity 2A IC50/2D IC50 [3] | IC50 [5] [µM] | Current ratio I/Icontrol (mean ± SEM, %) GluN2B ([6]; current ratio reported for 3 μM test compound (footnote d, Table 2)) | Structure (SMILES)
55 ± 3 | 41 | 29 ± 2 | 14 | 3 | 26 ± 1.8 | 12 | 86 ± 4.4 | – | – | – | – | – | – | – | Cc1cc(-c2ccc(Cl)cc2)c(C2=NN(C(=O)C(F)(F)CC(=O)O)C(c3ccc(Cl)cc3)C2)c(=O)[nH]1 (stereo not drawn) [Compound 55, 4-[3-(4-Chlorophenyl)-5-[4-(4-chlorophenyl)-6-methyl-2-oxo-1H-pyridin-3-yl]-3,4-dihydropyrazol-2-yl]-3,3-difluoro-4-oxo-butanoic acid]
96 ± 2.4 | – | 61 ± 1 | 55 | – | 39 ± 1.7 | 20 | 104 ± 2.2 | – | – | – | – | – | – | – | O=C(O)CC(F)(F)C(=O)N1N=C(c2c(-c3ccc(Cl)cc3)cc[nH]c2=O)CC1c1ccc(Cl)cc1 (stereo not drawn) [Compound 28, 4-[3-(4-Chlorophenyl)-5-[4-(4-chlorophenyl)-2-oxo-1H-pyridin-3-yl]-3,4-dihydropyrazol-2-yl]-3,3-difluoro-4-oxo-butanoic acid]
– | – | – | 2.1 | – | – | 0.8 | – | 82 ± 1.7^c (n = 2, 8) % | 18 ± 1.0^c (n = 3, 11) % | 7.4 ± 0.9^c (n = 3, 10) % | 77 ± 4.8^c (n = 2, 7) % | – | – | – | O=C(O)CC(F)(F)C(=O)N1N=C(c2c(-c3ccc(Cl)cc3)c3ccncc3[nH]c2=O)CC1c1ccc(Cl)cc1 (stereo not drawn) [Compound 120, 4-[3-(4-Chlorophenyl)-5-[4-(4-chlorophenyl)-2-oxo-1H-1,7-naphthyridin-3-yl]-3,4-dihydropyrazol-2-yl]-3,3-difluoro-4-oxo-butanoic acid]
71 ± 0.9 | 67 | 6.6 ± 0.9 | 2.1 | 52 | 3.8 ± 0.6 | 1.3 | 49 ± 7.3 | – | – | – | – | 35 | 45 | – | O=C(O)CC(F)(F)C(=O)N1N=C(c2c(-c3ccc(Cl)cc3)c3cccnc3[nH]c2=O)CC1c1ccc(Cl)cc1 (stereo not drawn) [Compound 88, 4-[3-(4-Chlorophenyl)-5-[4-(4-chlorophenyl)-2-oxo-1H-1,8-naphthyridin-3-yl]-3,4-dihydropyrazol-2-yl]-3,3-difluoro-4-oxo-butanoic acid]
82 ± 1.1 | – | 91 ± 3.5 | – | – | 74 ± 7.1 | – | 98 ± 4.1 | – | – | – | – | – | – | – | O=C(O)CC(F)(F)C(=O)N1N=C(c2cnccc2-c2ccccc2)CC1c1ccc(Cl)cc1 (stereo not drawn) [Compound 15, 4-[3-(4-Chlorophenyl)-5-(4-phenyl-3-pyridyl)-3,4-dihydropyrazol-2-yl]-3,3-difluoro-4-oxo-butanoic acid]
100 ± 2.7 | – | 111 ± 1.9 | – | – | 110 ± 3.1 | – | 100 ± 2 | – | – | – | – | – | – | – | Cc1cc(-c2ccc(Cl)cc2)c(C2=NN(C(=O)C(F)(F)CC(=O)O)C(c3ccc(Cl)cc3)C2)cn1 (stereo not drawn) [Compound 73, 4-[3-(4-Chlorophenyl)-5-[4-(4-chlorophenyl)-6-methyl-3-pyridyl]-3,4-dihydropyrazol-2-yl]-3,3-difluoro-4-oxo-butanoic acid]
– | – | – | – | – | – | – | – | 94 ± 1.7^c (n = 2, 8) % | 71 ± 4.8^c (n = 2, 8) % | 67 ± 5.1^c (n = 2, 8) % | 96 ± 1.8^c (n = 2, 8) % | – | – | – | O=C(CCc1nccs1)N1N=C(c2c(-c3ccc(Cl)cc3)c3ccccc3[nH]c2=O)CC1c1ccc(Cl)cc1 (stereo not drawn) [Compound 123, 4-(4-Chlorophenyl)-3-[3-(4-chlorophenyl)-2-(3-thiazol-2-ylpropanoyl)-3,4-dihydropyrazol-5-yl]-1H-quinolin-2-one]
– | – | 6.9 ± 2.5 | 0.32 | – | 5.9 ± 2.7 | 0.25 | 86 ± 7.4 | – | – | – | – | – | – | 88 ± 4.6^d (n = 1, 4) % | O=C(O)CC(F)(F)C(=O)N1N=C(c2c(-c3ccc(Cl)cc3)c3ccsc3[nH]c2=O)CC1c1ccc(Cl)cc1 (stereo not drawn) [57(b), 4-[3-(4-Chlorophenyl)-5-[4-(4-chlorophenyl)-6-oxo-7H-thieno[2,3-b]pyridin-5-yl]-3,4-dihydropyrazol-2-yl]-3,3-difluoro-4-oxo-butanoic acid]
37.7 ± 3.5 | 19 | 22 ± 1.5 | 0.56 | 44 | 19 ± 3 | 0.43 | 47.6 ± 5.5 | – | – | – | – | 24 | 11 | – | O=C(O)CC(F)(F)C(=O)N1N=C(c2c(-c3ccc(Br)cc3)c3ccsc3[nH]c2=O)CC1c1ccc(Cl)cc1 (stereo not drawn) [57(a), 4-[5-[4-(4-Bromophenyl)-6-oxo-7H-thieno[2,3-b]pyridin-5-yl]-3-(4-chlorophenyl)-3,4-dihydropyrazol-2-yl]-3,3-difluoro-4-oxo-butanoic acid]
48 ± 1.9 | – | 2.3 ± 0.5 | – | 56 | 2.4 ± 1.6 | – | 29 ± 4.1 | – | – | – | – | 42 | – | – | O=C(CCc1nnn[nH]1)N1N=C(c2c(-c3ccc(Cl)cc3)c3ccccc3[nH]c2=O)CC1c1ccc(Cl)cc1 (stereo not drawn) [Compound 109, 4-(4-Chlorophenyl)-3-[3-(4-chlorophenyl)-2-[3-(1H-tetrazol-5-yl)propanoyl]-3,4-dihydropyrazol-5-yl]-1H-quinolin-2-one]
79 ± 4.3 | – | 35 ± 0.84 | 15 | – | 27 ± 2.3 | 12 | 74 ± 3.4 | – | – | – | – | – | – | – | O=C(O)CC(F)(F)C(=O)N1N=C(c2cnccc2-c2ccc(Cl)cc2)CC1c1ccc(Cl)cc1 (stereo not drawn) [Compound 29, 4-[3-(4-Chlorophenyl)-5-[4-(4-chlorophenyl)-3-pyridyl]-3,4-dihydropyrazol-2-yl]-3,3-difluoro-4-oxo-butanoic acid]
58 ± 2 | 47 | 2.7 ± 0.32 | 1.9 | – | 7.9 ± 2.9 | 2.6 | 71 ± 5 | – | – | – | – | – | 42 | – | Cc1[nH]c(=O)c(C2=NN(C(=O)C(F)(F)CC(=O)O)C(c3ccc(Cl)cc3)C2)c(-c2ccc(Cl)cc2)c1C (stereo not drawn) [Compound 56, 4-[3-(4-Chlorophenyl)-5-[4-(4-chlorophenyl)-5,6-dimethyl-2-oxo-1H-pyridin-3-yl]-3,4-dihydropyrazol-2-yl]-3,3-difluoro-4-oxo-butanoic acid]

Reference: patent US20240217979A1, “GluN2 Subunit Selective Antagonists of the N-Methyl-D-Aspartate Receptors” (Emory University, priority 2021, published 2024)
